The values that follow come from PMC6273692, “Binding Mode and Selectivity of Steroids towards Glucose-6-phosphate Dehydrogenase from the Pathogen Trypanosoma cruzi” (Molecules, 2016).

Read-outs that look alike come from different tables or passages of the source.

One experiment relates to WT TcG6PDH. The experiment can be described thus: Kinetic assay of WT TcG6PDH with substrates.
A further experiment deals with human G6PDH. As to conditions: cited from earlier work; for increase of inhibition of human G6PDH compared to the parental scaffold (EA): vs EA; for IC50: read-out: IC50 (anti-human G6PDH activity).
A further experiment addresses TcG6PDH wildtype (Trypanosoma cruzi, UniProt Q1WBU6). The experiment can be described thus: Inhibitor assay with wildtype TcG6PDH (NADPH formation at 340 nm). In kind it is biochemical. As to conditions: for activity at 30 µM: read-out: G6PDH Activity [%] ± SD at 30 µM Compound; for increase of potency towards the parasite enzyme compared to the parental scaffold (EA): vs EA; for inhibition at 30 µM: read-out: inhibition at 30 μM compound.

For the next experiment, the target named is T. cruzi G6PDH (TcG6PDH). As to conditions: cited from earlier work.
A further experiment addresses G6PDH from T. brucei. As to conditions: cited from earlier work.
For experiment [1], the system named is African trypanosomes expressing an ectopic copy of L. mexicana G6PDH. As to conditions: endogenous G6PDH deficient; cited from earlier work.

Sequence of TcG6PDH wildtype (Q1WBU6 entry or part of it): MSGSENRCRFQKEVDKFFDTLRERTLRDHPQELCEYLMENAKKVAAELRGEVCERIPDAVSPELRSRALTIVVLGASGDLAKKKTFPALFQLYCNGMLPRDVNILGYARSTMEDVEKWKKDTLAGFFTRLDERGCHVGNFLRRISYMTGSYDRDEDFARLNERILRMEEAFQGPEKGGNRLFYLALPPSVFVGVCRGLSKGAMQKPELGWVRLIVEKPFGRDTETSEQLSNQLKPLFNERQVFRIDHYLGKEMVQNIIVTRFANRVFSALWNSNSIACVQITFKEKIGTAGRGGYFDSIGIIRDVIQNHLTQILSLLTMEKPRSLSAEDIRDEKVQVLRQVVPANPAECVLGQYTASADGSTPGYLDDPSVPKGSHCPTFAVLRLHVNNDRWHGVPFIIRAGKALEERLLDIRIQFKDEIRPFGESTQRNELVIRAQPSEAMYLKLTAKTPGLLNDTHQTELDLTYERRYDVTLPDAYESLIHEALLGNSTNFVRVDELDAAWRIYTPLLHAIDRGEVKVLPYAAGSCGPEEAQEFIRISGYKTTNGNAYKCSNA
Procedure for WT TcG6PDH: G6PDH activity was determined at ~25 °C by monitoring NADPH (ε340 = 6220 M^−1·cm^−1) formation at 340 nm. All assays were performed in buffer B (50 mM Tris pH 7.5, 5 mM MgCl2) in a final reaction volume of 150 µL and started by addition of glucose-6-phosphate (G6P). For WT TcG6PDH, the Michaelis’ constants (KM) and the maximum initial velocity (Vmax) were determined varying reciprocally the substrate (10, 50, 200, 1000 and 5000 µM G6P) and coenzyme (5, 10, 50, 250 and 625 µM NADP^+) concentrations. For the mutants, the kinetic characterization was performed at a fixed saturating concentration of the corresponding co-substrate (i.e., 6 mM G6P and 700 µM NADP^+) and varying concentrations of the substrate (25, 50, 70, 100, 250, 350, 500 and 700 µM NADP^+, and 0.005, 0.025, 0.05, 0.25, 0.65, 1, 2.5 and 5 mM G6P). […] The first 30 s of the reaction were used to calculate initial velocities that were normalized by the corresponding enzyme concentration in the assay. All measurements were performed in triplicate using a Cary 50 Bio spectrophotometer (Agilent Technologies, Santa Clara, CA, USA). The initial rates were determined with the Origin Pro 8.0 software (OriginLab Corporation, Northampton, MA, USA), and the apparent kinetic constants were calculated by nonlinear regression using the GraphPad Prism 5.0 software (GraphPad Inc., San Diego, CA, USA). The data were fitted to the Cleland or Michaelis-Menten equation to obtain the corresponding kinetic parameters.

With `O=C[C@H](O)[C@@H](O)[C@H](O)[C@H](O)COP(=O)(O)O` [Compound G6P, glucose-6-phosphate], the Km in the experiment with WT TcG6PDH (read-out: KM G6P, apparent, triplicate) turned out to be 77 ± 20 µM. The kcat in the experiment with WT TcG6PDH (varying G6P) turned out to be 62 ± 3 s⁻¹.

Consider `C[C@]12CC[C@H](O)CC1CCC1C2CC[C@]2(C)C(=O)C(Br)CC12` (stereo partly shown) [Compound 16Br-EA, 16-bromo epiandrosterone, reference compound], for which the “activity against human G6PDH relative to TcG6PDH” value in the experiment with human G6PDH is “almost two orders of magnitude less active”.

Consider `C[C@]12CC[C@H](NS(N)(=O)=O)CC1CCC1C2CC[C@]2(C)C(=O)CCC12` (stereo partly shown) [Compound 2], for which, at TcG6PDH wildtype, half-maximal inhibition (IC50) required 2200 nM, the activity at 30 µM was determined as 9 ± 1% and the “increase of potency towards the parasite enzyme compared to the parental scaffold (EA)” value is recorded as ≤ 2 fold. In addition, in the experiment with human G6PDH, the “increase of inhibition of human G6PDH compared to the parental scaffold (EA)” value is ~ 10 fold.

With `C[C@]12CC[C@H](NS(N)(=O)=O)CC1CCC1C2CC[C@@]2(C)C1CC[C@@H]2C(=O)CO` (stereo partly shown) [Compound 3], at TcG6PDH wildtype, the activity at 30 µM came out at 30 ± 2% and the inhibition at 30 µM is 60 to 70%. For the same compound, the concentration for half-maximal inhibition (IC50) with human G6PDH is ~2000 nM.

Consider `CCNC(=O)N[C@H]1CC[C@@]2(C)C(CCC3C2CC[C@]2(C)C(=O)CCC32)C1` (stereo partly shown) [Compound 1], for which, on TcG6PDH wildtype, 1500 nM corresponded to half-maximal inhibition (IC50), the activity at 30 µM is 7 ± 1% and the “increase of potency towards the parasite enzyme compared to the parental scaffold (EA)” value is ≤ 2 fold. For the same compound, in the experiment with human G6PDH, the “increase of inhibition of human G6PDH compared to the parental scaffold (EA)” value was ~ 10 fold.

Turning to `C[C@]12CC[C@H](O)CC1CCC1C2CC[C@@]2(C)C1CC[C@@H]2C(=O)CO` (stereo partly shown) [Compound 4], at TcG6PDH wildtype, the activity at 30 µM stood at 43 ± 2% and the inhibition at 30 µM was in the range of 60 to 70%. The IC50 with human G6PDH was ~2000 nM.

Regarding `NC(=O)c1ccc[n+]([C@@H]2O[C@H](COP(=O)([O-])OP(=O)(O)OC[C@H]3O[C@@H](n4cnc5c(N)ncnc54)[C@H](OP(=O)(O)O)[C@@H]3O)[C@@H](O)[C@H]2O)c1` [NADP^+], in the experiment on WT TcG6PDH (read-out: KM NADP^+, apparent, triplicate), the Km is 16 ± 3 µM. Further, the kcat with WT TcG6PDH (varying NADP+) amounted to 52 ± 2 s⁻¹.

As for `C[C@]12CC[C@H](O)CC1=CC[C@@H]1[C@@H]2CC[C@]2(C)C(=O)CC[C@@H]12` [DHEA, dehydroepiandrosterone], the results for the inhibition constant (Ki) at T. cruzi G6PDH (TcG6PDH), on human G6PDH and at G6PDH from T. brucei were 2600 to 25000 nM, 6000 to 9000 nM and 1700 nM, respectively.

Turning to `C[C@]12CC[C@H](O)C[C@@H]1CC[C@@H]1[C@@H]2CC[C@]2(C)C(=O)CC[C@@H]12` [EA, epiandrosterone, reference compound], the IC50 at TcG6PDH wildtype was 3000 ± 400 nM. Further, the activity at 30 µM on TcG6PDH wildtype was 12 ± 2%. Also, the inhibition constant (Ki) on T. cruzi G6PDH (TcG6PDH) is 1000 to 5600 nM; on human G6PDH, 3000 nM; at G6PDH from T. brucei it was 500 nM. In addition, the “sensitivity of trypanosomes expressing L. mexicana G6PDH” value in experiment [1] was “resistant”.
